In patent publication US10760052B2, “Method of inhibiting tau phosphorylation” (priority 2012, dated 2020):
Several values for one entry are separate records, joined by “and”; a condition that tells them apart may be missing. Equal values may be shown once. Read-outs that look alike come from different tables or passages of the source.

Legend:
α7nAChR-FLNA complex [1] = biological target: T1, α7nAChR-FLNA complex (Rattus norvegicus, UniProt A0A8I5ZV49); assay: Aβ42-induced α7nAChR-FLNA association in rat frontal cortical synaptosomes (co-immunoprecipitation/Western blot); format: cell-based; settings: 1 or 10 nM compound, simultaneously or 10 minutes prior to Aβ42 (0.1 μM)
T1 construct: from tissue; host or cells: rat frontal cortex synaptosomes
T1 sequence (A0A8I5ZV49 entry or part of it, one chain of several): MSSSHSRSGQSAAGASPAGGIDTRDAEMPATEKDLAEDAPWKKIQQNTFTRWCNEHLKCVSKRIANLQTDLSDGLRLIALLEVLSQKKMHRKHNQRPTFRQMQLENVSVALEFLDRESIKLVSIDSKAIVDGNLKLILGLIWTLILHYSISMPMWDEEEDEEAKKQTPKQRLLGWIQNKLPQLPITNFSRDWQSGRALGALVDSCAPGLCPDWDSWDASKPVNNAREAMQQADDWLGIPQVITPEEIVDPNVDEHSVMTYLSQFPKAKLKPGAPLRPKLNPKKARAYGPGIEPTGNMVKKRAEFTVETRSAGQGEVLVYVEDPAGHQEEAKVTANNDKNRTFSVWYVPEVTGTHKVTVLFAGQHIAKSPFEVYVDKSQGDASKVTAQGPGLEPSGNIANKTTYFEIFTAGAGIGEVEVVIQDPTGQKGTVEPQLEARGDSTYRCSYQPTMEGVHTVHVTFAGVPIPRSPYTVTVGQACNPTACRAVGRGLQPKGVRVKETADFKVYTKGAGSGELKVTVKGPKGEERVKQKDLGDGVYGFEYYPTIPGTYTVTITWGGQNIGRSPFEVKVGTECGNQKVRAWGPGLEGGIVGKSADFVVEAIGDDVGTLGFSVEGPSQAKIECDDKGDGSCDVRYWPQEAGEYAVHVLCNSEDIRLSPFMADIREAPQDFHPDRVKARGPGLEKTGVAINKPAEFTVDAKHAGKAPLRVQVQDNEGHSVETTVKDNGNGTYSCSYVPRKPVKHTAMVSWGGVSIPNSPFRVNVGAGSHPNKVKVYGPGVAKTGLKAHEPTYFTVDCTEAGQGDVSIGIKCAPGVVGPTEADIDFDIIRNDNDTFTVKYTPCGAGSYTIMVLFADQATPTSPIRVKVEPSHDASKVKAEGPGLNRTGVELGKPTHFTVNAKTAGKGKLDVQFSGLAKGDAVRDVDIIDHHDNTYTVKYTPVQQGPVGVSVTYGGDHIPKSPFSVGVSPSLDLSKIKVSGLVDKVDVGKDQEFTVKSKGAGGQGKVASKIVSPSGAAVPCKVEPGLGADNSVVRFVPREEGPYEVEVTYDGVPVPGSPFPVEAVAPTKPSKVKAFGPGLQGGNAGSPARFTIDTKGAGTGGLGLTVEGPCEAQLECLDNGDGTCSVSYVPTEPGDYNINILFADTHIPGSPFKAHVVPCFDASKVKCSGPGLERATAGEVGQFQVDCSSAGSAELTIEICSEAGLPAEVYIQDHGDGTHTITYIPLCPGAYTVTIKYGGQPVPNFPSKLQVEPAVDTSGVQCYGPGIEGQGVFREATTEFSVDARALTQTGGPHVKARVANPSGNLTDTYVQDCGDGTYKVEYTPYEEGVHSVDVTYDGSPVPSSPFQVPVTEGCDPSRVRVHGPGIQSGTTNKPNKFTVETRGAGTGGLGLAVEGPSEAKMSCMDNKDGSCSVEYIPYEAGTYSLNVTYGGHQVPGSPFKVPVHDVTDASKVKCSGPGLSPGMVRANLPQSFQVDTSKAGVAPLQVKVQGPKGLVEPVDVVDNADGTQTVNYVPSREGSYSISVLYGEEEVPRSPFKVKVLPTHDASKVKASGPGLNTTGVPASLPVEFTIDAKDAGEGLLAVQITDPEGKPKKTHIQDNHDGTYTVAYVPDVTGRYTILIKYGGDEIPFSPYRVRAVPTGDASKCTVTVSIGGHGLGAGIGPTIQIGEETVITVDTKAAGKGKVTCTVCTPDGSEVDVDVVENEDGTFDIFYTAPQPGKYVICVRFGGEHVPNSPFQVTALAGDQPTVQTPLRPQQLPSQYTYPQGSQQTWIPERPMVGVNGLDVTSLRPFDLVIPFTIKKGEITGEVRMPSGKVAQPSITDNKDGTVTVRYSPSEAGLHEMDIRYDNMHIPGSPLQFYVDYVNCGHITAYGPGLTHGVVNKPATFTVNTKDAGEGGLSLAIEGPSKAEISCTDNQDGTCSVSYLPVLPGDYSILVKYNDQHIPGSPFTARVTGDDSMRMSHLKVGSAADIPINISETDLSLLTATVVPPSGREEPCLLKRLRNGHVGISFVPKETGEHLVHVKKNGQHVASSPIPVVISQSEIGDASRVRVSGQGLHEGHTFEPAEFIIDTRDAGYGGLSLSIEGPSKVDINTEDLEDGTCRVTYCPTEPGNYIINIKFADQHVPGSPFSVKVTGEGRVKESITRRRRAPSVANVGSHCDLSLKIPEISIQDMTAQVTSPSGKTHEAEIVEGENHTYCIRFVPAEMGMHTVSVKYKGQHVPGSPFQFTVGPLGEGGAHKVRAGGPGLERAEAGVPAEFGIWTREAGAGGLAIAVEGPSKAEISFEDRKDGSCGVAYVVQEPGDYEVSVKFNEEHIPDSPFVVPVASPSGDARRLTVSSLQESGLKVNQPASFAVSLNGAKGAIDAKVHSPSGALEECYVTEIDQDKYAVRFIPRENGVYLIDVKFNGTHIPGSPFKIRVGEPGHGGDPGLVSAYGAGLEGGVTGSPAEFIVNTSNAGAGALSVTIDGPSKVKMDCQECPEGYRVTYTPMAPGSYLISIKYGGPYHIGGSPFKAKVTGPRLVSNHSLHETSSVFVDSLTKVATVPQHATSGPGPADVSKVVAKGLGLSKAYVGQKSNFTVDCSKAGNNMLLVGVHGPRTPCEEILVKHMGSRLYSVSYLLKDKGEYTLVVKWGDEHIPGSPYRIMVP
Description: The α7nAChR-FLNA complexes in the solubilized synaptosomes were immunoprecipitated with immobilized anti-FLNA and the α7nAChR and FLNA levels in the anti-FLNA immunoprecipitates determined by Western blotting (FIG. 2A) and quantified by densitometry (FIG. 2B). n=3. […] The letter designation “M” that accompanies many of the “C-series” compounds is omitted from FIG. 2, the remaining figures and most discussions of the figures and compounds hereinafter for ease in expression. Structural formulas of the compounds used in this and the other figures are provided hereinafter. […]

[2] = tested on: tau protein phosphorylated at S202, T231 and T181; assay: Aβ42-induced tau phosphorylation in rat frontal cortical synaptosomes; format: cell-based; settings: 1 or 10 nM compound, simultaneously or 10-minute pretreatment; Aβ42 0.1 μM
Experimental: FIG. 4 in four panels as FIGS. 4A-4D, illustrates that FLNA-binding compounds reduce tau phosphorylation at all three phosphorylation sites. […] The three phosphoepitopes of tau were detected in immunoprecipitates using specific antibodies. […] Immunoprecipitates were determined by Western blotting (FIGS. 4A-4C) and quantified by densitometry (FIG. 4D).
(§1) FIG. 42, also in two panels, FIGS. 42A and 42B, illustrates that FLNA-binding compounds reduce tau phosphorylation at all three phosphorylation sites using the compounds and concentrations of FIG. 41 using immunoprecipitation and Western blotting. […] The three phosphoepitopes of tau were detected in immunoprecipitates using specific antibodies.
as §1, with “44,” for “42,”, “FIG. 44A” for “FIGS. 42A”, “FIG. 44B,” for “42B,”, “43” for “41”, “antibodies. Aβ42 strongly promotes tau phosphorylation at all three sites.” for “antibodies.”
as §1, with “46,” for “42,”, “FIG. 46A” for “FIGS. 42A”, “FIG. 46B,” for “42B,”, “45” for “41”, “antibodies. Aβ42 strongly promotes tau phosphorylation at all three sites.” for “antibodies.”
The three primary phosphorylation sites on tau protein were examined for their phosphorylation levels compared to total tau protein content. Tau, phosphorylated at these three sites, is a constituent of NFTs. Consistent with effects on FLNA-α7nAChR association, and ERK2 activation, all of the FLNA-binding compounds assayed, with 10 minute pre-incubation, decreased Aβ42-induced phosphorylation of tau at all three sites (FIG. 4).

mu opiate receptor (MOR) = biological target: T2, mu opiate receptor (MOR) (Rattus norvegicus, UniProt P33535); format: biochemical
T2 construct: from tissue; host or cells: striatum (membrane preparation)
T2 sequence (P33535 whole entry): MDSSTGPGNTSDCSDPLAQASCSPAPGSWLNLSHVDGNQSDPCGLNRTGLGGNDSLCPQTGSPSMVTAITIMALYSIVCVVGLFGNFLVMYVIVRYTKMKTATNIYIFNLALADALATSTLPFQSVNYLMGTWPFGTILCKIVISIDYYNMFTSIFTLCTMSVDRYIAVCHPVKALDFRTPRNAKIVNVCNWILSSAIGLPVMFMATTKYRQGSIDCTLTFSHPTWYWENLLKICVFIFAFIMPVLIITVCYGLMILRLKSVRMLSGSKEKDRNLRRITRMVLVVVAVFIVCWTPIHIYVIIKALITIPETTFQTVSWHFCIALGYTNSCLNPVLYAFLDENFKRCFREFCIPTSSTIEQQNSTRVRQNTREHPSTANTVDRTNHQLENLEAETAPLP

α7nAChR-FLNA complex [3] = biological target: T3, α7nAChR-FLNA complex (Homo sapiens, UniProt P36544); format: cell-based
T3 construct: In postmortem control frontocortical tissue, Aβ42-induced FLNA recruitment to α7nAChRs was mimicked; from tissue; host or cells: postmortem frontal cortex of control subjects
T3 sequence (P36544 23-502, one chain of several): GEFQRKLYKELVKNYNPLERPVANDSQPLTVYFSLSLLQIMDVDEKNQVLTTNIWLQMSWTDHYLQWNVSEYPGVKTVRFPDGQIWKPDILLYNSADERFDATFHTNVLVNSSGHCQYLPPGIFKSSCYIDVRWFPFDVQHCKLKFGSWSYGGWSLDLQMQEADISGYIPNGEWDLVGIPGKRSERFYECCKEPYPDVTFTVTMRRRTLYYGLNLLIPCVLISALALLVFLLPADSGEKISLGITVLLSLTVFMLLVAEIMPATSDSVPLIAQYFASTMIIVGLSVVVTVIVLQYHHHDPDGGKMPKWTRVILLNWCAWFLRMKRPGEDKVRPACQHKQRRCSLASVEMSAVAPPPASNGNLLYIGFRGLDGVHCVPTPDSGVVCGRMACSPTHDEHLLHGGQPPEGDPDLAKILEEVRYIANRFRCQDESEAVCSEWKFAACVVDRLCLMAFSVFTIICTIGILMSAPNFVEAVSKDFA
Experimental: Incubation continued for 1 hour in the dark. […] The reaction was terminated by the addition of 1.5 ml of ice-cold Ca^2+-free K-R, and slices were collected by a brief centrifugation.
Solubilized immunoprecipitates derived from co-immunoprecipitation assays were separated by either 7.5 or 10% SDS-PAGE and then electrophoretically transferred to nitrocellulose membranes. The membranes were washed with PBS and blocked overnight (about 18 hours) at 4° C. with 10% milk in PBS with 0.1% Tween®-20 (PBST). Following three 5-minute washes with 0.1% PBST, the membranes were incubated at room temperature for 2 hours with antibody of choice at 1:500-1:1,000 dilutions. After three 2-minute washes in 0.1% PBST, membranes were incubated for 1 hour with anti-species IgG-HRP (1:5,000 dilution) and washed with 0.1% PBST three times, 2-minutes each. Immunoreactivity was visualized by reacting with chemiluminescent reagent (Pierce-ENDOGEN) for exactly 5 minutes and immediately exposing to X-ray film. Specific bands were quantified by densitometric scanning (GS-800 calibrated densitometer, Bio-Rad Laboratories).

[4] = biological target: VAKGL pentapeptide of filamin A (FLNA) of SEQ ID NO: 1 (Homo sapiens, UniProt P21333); assay: FITC-NLX-based FLNA screening assay (inhibition of FITC-naloxone binding to Bn-VAKGL on streptavidin plates)
[5] = 1 μM agent, relative to 0.1 μM Aβ42

CC(=O)c1ccc(S(=O)(=O)N2CC(CN(C)C)OC23CCN(C)CC3)cc1 (stereo not drawn) [Compound C0108]
α7nAChR-FLNA association (ratio α7nAChR/FLNA) (α7nAChR-FLNA complex [1]): reduce α7nAChR-FLNA association

O=C1CNC2(CCN(CC3CC3)CC2)N1Cc1ccccc1 [Compound C0124]
α7nAChR-FLNA association (ratio α7nAChR/FLNA) (α7nAChR-FLNA complex [1]): reduce α7nAChR-FLNA association
Aβ42-induced tau phosphorylation at S202, T231 and T181 [2]: reduced this phosphorylation at both concentrations

Cc1ccc(S(=O)(=O)N2CCOC23CCN(CC2CC2)CC3)cc1 [Compound C0134]
α7nAChR-FLNA association (ratio α7nAChR/FLNA) (α7nAChR-FLNA complex [1]): statistically different from Aβ42 alone

C[C@@H](NC(=O)[C@@H](N)Cc1ccc(O)cc1)C(=O)NCC(=O)N(C)[C@@H](Cc1ccccc1)C(=O)NCCO [DAMGO, reference compound]
Concentration of FLNA-Binding Compound as Agonist 0.1 μM (mu opiate receptor (MOR)): 168.5%
Concentration of FLNA-Binding Compound as Agonist 1 μM (mu opiate receptor (MOR)): 266.1%
Concentration of FLNA-Binding Compound as Agonist 1 μM + BFNA (mu opiate receptor (MOR)): 53.2%
[35S]GTPγS binding, FLNA-Binding Compound as Agonist at 0.1 μM (mu opiate receptor (MOR)): 168.5%
[35S]GTPγS binding, FLNA-Binding Compound as Agonist at 1 μM (mu opiate receptor (MOR)): 266.1%
[35S]GTPγS binding, FLNA-Binding Compound as Agonist at 1 μM + BFNA (mu opiate receptor (MOR)): 53.2%

COc1ccc2c3c1O[C@H]1C[C@@H](O)C=C[C@@]31CCN(C)C2 [Galantamine, galantamine]
FLNA/α7nAChR ratio (stimulation vs vehicle, %) (α7nAChR-FLNA complex [3]; 1 μM agent): (17.1 ± 14.6) %
Aβ42 effect, % (α7nAChR-FLNA complex [3]; [5]): 1.7 ± 1.5%

CC12CC3CC(C)(C1)CC(N)(C3)C2 [Memantine, memantine]
FLNA/α7nAChR ratio (stimulation vs vehicle, %) (α7nAChR-FLNA complex [3]; 1 μM agent): (225.9 ± 38.5) %
FLNA/α7nAChR ratio (α7nAChR-FLNA complex [3]; 1 μM agent, postmortem control frontocortical tissue): 0.21 ± 0.03
Aβ42 effect, % (α7nAChR-FLNA complex [3]; [5]): 23.0 ± 3.9%
FLNA recruitment to α7nAChRs (in words) (α7nAChR-FLNA complex [3]; postmortem control frontocortical tissue): elicited the recruitment of FLNA to α7nAChRs

CCN1C[C@]2(COC(=O)c3ccccc3N3C(=O)C[C@H](C)C3=O)CC[C@H](OC)[C@@]34[C@@H]5C[C@H]6[C@H](OC)[C@@H]5[C@](O)(C[C@@H]6OC)[C@@](O)([C@@H](OC)[C@H]23)[C@@H]14 [Methyllycaconitine, methyllycaconitine]
Aβ42 effect, % (α7nAChR-FLNA complex [3]): 2.0 ± 1.2%
FLNA recruitment to α7nAChRs (in words) (α7nAChR-FLNA complex [3]): showed no effect
FLNA/α7nAChR ratio (α7nAChR-FLNA complex [3]): 0.08 ± 0.02
FLNA/α7nAChR ratio (stimulation vs vehicle, %) (α7nAChR-FLNA complex [3]): (19.8 ± 12.2) %

C=CCN1CC[C@]23c4c5ccc(O)c4O[C@H]2C(=O)CC[C@@]3(O)[C@H]1C5 [Naloxone, naloxone]
Percent Binding Inhibition (FITC-NLX binding) [4]: 39.87% and 46.29% and 50.91%

CN1CCCC1c1cccnc1 (stereo not drawn) [Nicotine, nicotine]
Aβ42 effect, % (α7nAChR-FLNA complex [3]): 11.0 ± 3.2%
FLNA/α7nAChR ratio (α7nAChR-FLNA complex [3]): 0.13 ± 0.02
FLNA/α7nAChR ratio (stimulation vs vehicle, %) (α7nAChR-FLNA complex [3]): (107.7 ± 31.4) %

O=C(N[C@H]1CN2CCC1CC2)c1ccc(Cl)cc1 [PNU282987]
Aβ42 effect, % (α7nAChR-FLNA complex [3]): 8.9 ± 3.9%
FLNA/α7nAChR ratio (α7nAChR-FLNA complex [3]): 0.12 ± 0.02
FLNA/α7nAChR ratio (stimulation vs vehicle, %) (α7nAChR-FLNA complex [3]): (87.1 ± 37.9) %

COc1ccc(S(=O)(=O)N2CCSC23CCNCC3)cc1 [S-C0027]
% DAMGO (0.1 μM) (mu opiate receptor (MOR)): 74.2%
% DAMGO (1 μM) (mu opiate receptor (MOR)): 84.4%
% DAMGO + BFNA (mu opiate receptor (MOR)): 98.1%
[35S]GTPγS binding, FLNA-Binding Compound as Agonist at 0.1 μM (mu opiate receptor (MOR); 0.1 μM compound, striatal membranes, Series C-2): 156.2%
[35S]GTPγS binding, FLNA-Binding Compound as Agonist at 1 μM + BFNA (mu opiate receptor (MOR); 1 μM compound + 1 μM β-FNA (selective MOR antagonist), Series C-2): 56.2%
[35S]GTPγS binding, FLNA-Binding Compound as Agonist at 1 μM (mu opiate receptor (MOR); 1 μM compound, striatal membranes, Series C-2): 286.8%
